Experimental data reported in publication PMC9604311 (International Journal of Molecular Sciences, 2022).
“Also recorded” adds a separate entry of the source. Positions of bridges follow the written chain, without caps; N, C: chain ends. Non-standard residues stand in square brackets, D forms with d. Residues, ends and D or L forms follow the SMILES beside them. No end group written: not given here.

B1: DOP (protein)
chain: MEPAPSAGAELQPPLFANASDAYPSACPSAGANASGPPGARSASSLALAIAITALYSAVCAVGLLGNVLVMFGIVRYTKMKTATNIYIFNLALADALATSTLPFQSAKYLMETWPFGELLCKAVLSIDYYNMFTSIFTLTMMSVDRYIAVCHPVKALDFRTPAKAKLINICIWVLASGVGVPIMVMAVTRPRDGAVVCMLQFPSPSWYWDTVTKICVFLFAFVVPILIITVCYGLMLLRLRSVRLLSGSKEKDRSLRRITRMVLVVVGAFVVCWAPIHIFVIVWTLVDIDRRDPLVVAALHLCIALGYANSSLNPVLYAFLDENFKRCFRQLCRKPCGRPDPSSFSRAREATARERVTACTPSDGPGGGAAA

Key:
[1] = biological target: T1, human KOP (Homo sapiens, UniProt P41145); test: cell-based; details: for KOP pEC50 (CL95%): agonist potency, calcium mobilization; for KOP pEC50 (CL95%) / KOP α ± SEM: inactive = inactive up to 1 μM; for KOP α ± SEM: efficacy (intrinsic activity) relative to dynorphin A
T1 construct: expressed in transfected cells; host or cells: CHO cells
T1 sequence (P41145 whole entry): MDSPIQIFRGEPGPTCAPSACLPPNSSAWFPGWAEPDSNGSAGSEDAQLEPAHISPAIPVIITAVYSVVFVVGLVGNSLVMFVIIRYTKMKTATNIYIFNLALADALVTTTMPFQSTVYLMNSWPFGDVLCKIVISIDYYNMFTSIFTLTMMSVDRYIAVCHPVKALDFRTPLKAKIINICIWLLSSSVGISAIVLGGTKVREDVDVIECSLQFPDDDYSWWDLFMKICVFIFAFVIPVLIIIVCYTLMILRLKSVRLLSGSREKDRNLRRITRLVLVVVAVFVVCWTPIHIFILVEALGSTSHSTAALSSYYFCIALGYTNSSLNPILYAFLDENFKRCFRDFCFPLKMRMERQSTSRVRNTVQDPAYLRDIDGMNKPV

[2] = biological target: human NOP (Homo sapiens, UniProt P41146); test: calcium mobilization assay, CHO cells co-expressing NOP and Gαqi5; details: for NOP pEC50 (CL95%): agonist potency, calcium mobilization, inactive = inactive up to 1 μM
human NOP, sequence (P41146 whole entry): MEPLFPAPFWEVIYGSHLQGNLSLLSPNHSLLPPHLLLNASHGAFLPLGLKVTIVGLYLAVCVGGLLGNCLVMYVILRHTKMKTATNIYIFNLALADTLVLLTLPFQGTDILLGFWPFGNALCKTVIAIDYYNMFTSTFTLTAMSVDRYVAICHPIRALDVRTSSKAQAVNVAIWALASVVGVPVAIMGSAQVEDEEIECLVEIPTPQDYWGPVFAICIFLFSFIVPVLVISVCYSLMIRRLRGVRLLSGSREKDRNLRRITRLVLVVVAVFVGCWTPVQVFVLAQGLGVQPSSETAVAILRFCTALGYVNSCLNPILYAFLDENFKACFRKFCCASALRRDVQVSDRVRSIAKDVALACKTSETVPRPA

[3] = biological target: T2, human MOP (Homo sapiens, UniProt P35372); details: agonist potency, calcium mobilization; inactive = inactive up to 1 μM
T2 sequence (P35372 whole entry): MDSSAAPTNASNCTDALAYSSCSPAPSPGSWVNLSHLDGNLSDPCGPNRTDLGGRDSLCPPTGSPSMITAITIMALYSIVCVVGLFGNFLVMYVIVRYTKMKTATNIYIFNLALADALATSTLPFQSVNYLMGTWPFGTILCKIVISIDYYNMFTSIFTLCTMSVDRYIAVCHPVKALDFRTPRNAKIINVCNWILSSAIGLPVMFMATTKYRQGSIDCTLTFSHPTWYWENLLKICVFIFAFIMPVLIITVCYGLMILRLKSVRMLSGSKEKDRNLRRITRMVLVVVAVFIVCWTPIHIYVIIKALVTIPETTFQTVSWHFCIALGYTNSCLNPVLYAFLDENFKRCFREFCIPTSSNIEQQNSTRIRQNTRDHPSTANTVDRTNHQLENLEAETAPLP

[4] = biological target: T3, human DOP (Homo sapiens, UniProt P41143); type: cell-based; set-up: expressed in transfected cells; host or cells: CHO cells; details: inactive = inactive up to 1 μM; for DOP α ± SEM: efficacy (intrinsic activity) relative to DPDPE; for DOP pEC50 (CL95%): agonist potency, calcium mobilization
[5] = biological target: T3, human DOP; test: [3H]deltorphin-2 displacement binding assay; set-up: purchased PerkinElmer; host or cells: CHO cells; details: for pKi DOP: displacement of [3H]deltorphin-2 from CHOhDOP cell homogenates, mean ± SEM, n = 5
Experimental: (§1) Membranes were incubated in 0.5 mL of 50 mM Tris/HCl (pH = 7.4), 0.5% bovine serum albumin (BSA), with a number of peptidase inhibitors (bacitracin, bestatin, captopril) and various concentrations of radioligands for 2 h at 25 °C. Non-specific binding was assessed in the presence of […] naloxone. Assays were incubated at room temperature for […] and reactions were terminated via filtration through Whatman GF/B filters, soaked in 0.5% polyethyleneimine (PEI), using Millipore Sampling Manifold (Billerica, MA, USA). Radioactivity was determined after an 8 h extraction period.
(§2) The IC50 values were determined from the logarithmic concentration–displacement curves, and the values of the inhibitory constants (Ki) were calculated according to the equation of Cheng and Prusoff.

[6] = test system: mice; test: mouse hot-plate test (antinociception); details: i.t. administration, value with range in parentheses
[7] = biological target: T4, human nociceptin/orphanin FQ peptide receptor (NOP) (Homo sapiens, UniProt P41146); test: [leucyl-3H]nociceptin displacement binding assay
T4 construct: expressed in transfected cells; host or cells: CHO cells (CHOhNOP; gift from GSK), membrane homogenate
T4 sequence (P41146 whole entry): as the sequence (P41146 whole entry) above
Experimental: Radioactivity was determined after an 8 h extraction period.
as §2

[8] = biological target: T2, human MOP; test: [3H]DAMGO displacement binding assay; set-up: purchased PerkinElmer; host or cells: CHO cells
Experimental: as §1, §2

[9] = test system: mice; test: rotarod test (motor coordination); type: in vivo; details: 6.2 nmol/animal, i.t.; compared to control group
Experimental: Rotarod apparatus (Ugo Basile, No. 8466, Italy) was used to estimate the probable influence of peptide on motor coordination of animals. In the training period, 3 trials were conducted for 3 consecutive days. Animals that were able to stay on the rotating (16 revolutions/min) bar more than 180 s were chosen for the tests. In the experimental session, each animal was tested on the rotarod, and duration to fall from the rotating bar was noted.

[10] = biological target: T2, human MOP; test: cell-based
[11] = biological target: T5, KW-496 (lactam 2-5); test: radioligand competition ([3H]deltorphin-2)
T5 chain: Y[dK]FFDGGGRYYRIK-NH2

[12] = biological target: T6, KW-495 (lactam 2-5); test: radioligand competition ([3H]deltorphin-2)
T6 chain: Y[dK]FFDRYYRIK-NH2

[13] = biological target: T7, RP-170 (lactam 2-5); test: radioligand competition ([3H]deltorphin-2)
T7 chain: Y[dK]FFD-NH2

Molecule	KOP α ± SEM [1]	NOP pEC50 (CL95%) [2]	DOP α ± SEM [4]	DOP pEC50 (CL95%) [4]	Ki [5] [nM]	Ki [8] [nM]	further results
CC1(C)SSC(C)(C)[C@@H](NC(=O)[C@@H](N)Cc2ccc(O)cc2)C(=O)NCC(=O)N[C@@H](Cc2ccccc2)C(=O)N[C@H]1C(=O)O [DPDPE]	inactive	inactive					KOP pEC50 (CL95%) [1]: inactive
CC(C)C[C@H](NC(=O)[C@H](CCCCN)NC(=O)[C@H](CCCNC(=N)N)NC(=O)[C@H](C)NC(=O)[C@H](CO)NC(=O)[C@H](CCCCN)NC(=O)[C@H](CCCNC(=N)N)NC(=O)[C@H](C)NC(=O)CNC(=O)[C@@H](NC(=O)[C@H](Cc1ccccc1)NC(=O)CNC(=O)CNC(=O)[C@@H](N)Cc1ccccc1)[C@@H](C)O)C(=O)N[C@@H](C)C(=O)N[C@@H](CC(N)=O)C(=O)N[C@@H](CCC(N)=O)C(=O)O [N/OFQ]							MOP pEC50 (CL95%) [3]: inactive
CC[C@H](C)[C@H](NC(=O)[C@H](CCCNC(=N)N)NC(=O)[C@H](CCCNC(=N)N)NC(=O)[C@H](CC(C)C)NC(=O)[C@H](Cc1ccccc1)NC(=O)CNC(=O)CNC(=O)[C@@H](N)Cc1ccc(O)cc1)C(=O)N[C@@H](CCCNC(=N)N)C(=O)N1CCC[C@H]1C(=O)N[C@@H](CCCCN)C(=O)N[C@@H](CC(C)C)C(=O)N[C@@H](CCCCN)C(=O)N[C@@H](Cc1c[nH]c2ccccc12)C(=O)N[C@@H](CC(=O)O)C(=O)N[C@@H](CC(N)=O)C(=O)N[C@@H](CCC(N)=O)C(=O)O [dynorphin A, reference compound]		inactive	1.00				
CC[C@H](C)[C@H](NC(=O)[C@H](CCCNC(=N)N)NC(=O)[C@H](Cc1ccc(O)cc1)NC(=O)[C@H](Cc1ccc(O)cc1)NC(=O)[C@H](CCCNC(=N)N)NC(C)=O)C(=O)N[C@@H](CCCCN)C(N)=O [Ac-RYYRIK-NH2, Ac-Arg-Tyr-Tyr-Arg-Ile-Lys-NH2]	inactive		inactive	inactive			KOP pEC50 (CL95%) [1]: inactive; MOP pEC50 (CL95%) [3]: inactive
CC[C@H](C)[C@H](NC(=O)[C@H](CCCNC(=N)N)NC(=O)[C@H](Cc1ccc(O)cc1)NC(=O)[C@H](Cc1ccc(O)cc1)NC(=O)[C@H](CCCNC(=N)N)NC(=O)[C@@H]1CC(=O)NCCCC[C@@H](NC(=O)[C@@H](N)Cc2ccc(O)cc2)C(=O)N[C@@H](Cc2ccccc2)C(=O)N[C@@H](Cc2ccccc2)C(=O)N1)C(=O)N[C@@H](CCCCN)C(N)=O [KW-495, Tyr-c[D-Lys-Phe-Phe-Asp]-Arg-Tyr-Tyr-Arg-Ile-Lys-NH2] (HELM PEPTIDE1{Y.[dK].F.F.D.R.Y.Y.R.I.K.[am]}$PEPTIDE1,PEPTIDE1,2:R3-5:R3$$$V2.0; N-terminus assumed)			inactive	inactive	> 1000	4.47	pKi DOP [5]: did not bind to DOP; ED50 (jumping response) [6]: 4.59 (1.17–18.09) nmol; Ki [7]: 2.24 nM; effect on motor coordination (falling latency) [9]: did not cause any significant effect; EC50 [10]: 8.71 nM; EC50 [1]: 2.82 nM; EC50 [2]: 75.9 nM
CC[C@H](C)[C@H](NC(=O)[C@H](CCCNC(=N)N)NC(=O)[C@H](Cc1ccc(O)cc1)NC(=O)[C@H](Cc1ccc(O)cc1)NC(=O)[C@H](CCCNC(=N)N)NC(=O)CNC(=O)CNC(=O)CNC(=O)[C@@H]1CC(=O)NCCCC[C@@H](NC(=O)[C@@H](N)Cc2ccc(O)cc2)C(=O)N[C@@H](Cc2ccccc2)C(=O)N[C@@H](Cc2ccccc2)C(=O)N1)C(=O)N[C@@H](CCCCN)C(N)=O [KW-496] (HELM PEPTIDE1{Y.[dK].F.F.D.G.G.G.R.Y.Y.R.I.K.[am]}$PEPTIDE1,PEPTIDE1,2:R3-5:R3$$$V2.0)	1.03 ± 0.02	incomplete concentration–response curve; also recorded: Crc incomplete	inactive	inactive	> 1000	4.68	pKi DOP [5]: did not bind to DOP; Ki [7]: 44.7 nM; EC50 [10]: 4.9 nM; EC50 [1]: 1.15 nM; NOP α at 1 μM (Crc incomplete) ([2]; effect at 1 μM relative to N/OFQ, concentration-response curve incomplete): 0.33 ± 0.10
NC(=O)[C@@H]1CC(=O)NCCCC[C@@H](NC(=O)[C@@H](N)Cc2ccc(O)cc2)C(=O)N[C@@H](Cc2ccccc2)C(=O)N[C@@H](Cc2ccccc2)C(=O)N1 [RP-170, Tyr-c[D-Lys-Phe-Phe-Asp]-NH2, reference compound] (HELM PEPTIDE1{Y.[dK].F.F.D.[am]}$PEPTIDE1,PEPTIDE1,2:R3-5:R3$$$V2.0; N-terminus assumed)	1.00 ± 0.03	completely inactive	inactive	inactive	295	0.617	
B1							Ki [11]: > 1000 nM; Ki [12]: > 1000 nM; Ki [13]: 295 nM
